Measurements taken from patent US20160082087A1, “WHITENING PROMOTING AGENT OR ATOPIC DERMATITIS AMELIORATING AGENT” (NITTA GELATIN INC., priority 2013, published 2016).
Marks after values point to notes of the source that are not given here. Square brackets hold non-standard residues; d marks the D form. Ends that are not written are not given here. Hyp = O=C(O)[C@@H]1C[C@@H](O)CN1

Legend:
Format in all cases: cell-based, human
[1] = system: endoserine-1 (ET-1); test: ET-1 expression suppression test (real time PCR); conditions: 0.5 mM, 24 hours, NHEK (NB), control 1.00, GAPDH corrected
Experimental: (§1) A normal human epidermal keratinocyte NHEK (NB) (available from KURABO INDUSTRIES LTD.) was used. The cells were precultured in HuMedia-KG2 (available from KURABO INDUSTRIES LTD.), and 1.5×10^4 cells/mL×5 mL (7.5×10^4 cells/dish) were cultured in a 60 mm laboratory dish for two days. After confirming that the cells were subconfluent, the medium was replaced by 5 mL of HuMedia-KB2 (available from KURABO INDUSTRIES LTD.). Samples were added in respective concentrations, and allowed to react for 24 hours (ET-1, K10), 48 hours (TGM1, ivl, HAS2), and 72 hours (FLG). Total RNA was extracted from the cells, reverse transcribed, and subjected to real time PCR. In the real time PCR, as target genes, endoserine-1 (ET-1; Hs00174961_m1), keratin 10 (K10; Hs01043114_g1), transglutaminase 1 (TGM1; Hs01070310_m1), involucrin (ivl; Hs00846307_s1), filaggrin (FLG; Hs00856927_g1) and hyaluronic acid synthase 2 (HAS2; Hs00193435_m1) were measured. GAPDH was used as a correction gene. Calculation was conducted by using a calibration curve method, and FAM pigment of TaqMan Gene Expression was used in primers and probes.
(§2) For each peptide or the like of Examples 1 to 13 and Comparative Examples 1 to 27, RNA expression amounts of endoserine-1 (ET-1), keratin 10 (K10), transglutaminase 1 (TGM1), involucrin (ivl), filaggrin (FLG) and hyaluronic acid synthase 2 (HAS2) were measured. Values in the tables are each average value±standard deviation, and *, ** and *** denote that they are significant with P<0.05, P<0.01, and P<0.001, respectively with respect to the control in Paired-t-test.

[2] = system: keratin 10 (K10); test: K10 expression promotion test (real time PCR); conditions: 0.5 mM, 24 hours, NHEK (NB), control 1.00, GAPDH corrected
Experimental: as §1, §2

[3] = system: hyaluronic acid synthase 2 (HAS2); test: HAS2 expression promotion test (real time PCR); conditions: 0.5 mM, 48 hours, NHEK (NB), control 1.00, GAPDH corrected
Experimental: as §1, §2

[4] = system: involucrin (ivl); test: ivl expression promotion test (real time PCR); conditions: 0.5 mM, 48 hours, NHEK (NB), control 1.00, GAPDH corrected
Experimental: as §1, §2

[5] = system: filaggrin (FLG); test: FLG expression promotion test (real time PCR); conditions: 0.5 mM, 72 hours, NHEK (NB), control 1.00, GAPDH corrected
Experimental: as §1, §2

[6] = system: transglutaminase 1 (TGM1); test: TGM1 expression promotion test (real time PCR); conditions: 0.5 mM, 48 hours, NHEK (NB), control 1.00, GAPDH corrected
Experimental: as §1, §2

Phe-Hyp [Example 11]
Endoserine-I RNA expression amount [1]: 0.97 ± 0.16 | Keratin 10 RNA expression amount [2]: 2.22 ± 0.01*** | Hyaluronic acid synthase 2 RNA expression amount [3]: 1.63 ± 0.49* | Involucrin RNA expression amount [4]: 1.85 ± 0.00*** | Filaggrin RNA expression amount [5]: 1.95 ± 0.19* | Transglutaminase 1 RNA expression amount [6]: 1.46 ± 0.02*

Ala-Hyp [Comparative Example 2]
Endoserine-I RNA expression amount [1]: 1.23 ± 0.03* | Keratin 10 RNA expression amount [2]: 1.00 ± 0.06 | Hyaluronic acid synthase 2 RNA expression amount [3]: 0.99 ± 0.66 | Involucrin RNA expression amount [4]: 1.01 ± 0.00 | Filaggrin RNA expression amount [5]: 0.98 ± 0.95 | Transglutaminase 1 RNA expression amount [6]: 0.48 ± 0.02***

N[C@@H](Cc1ccccc1)C(=O)O [Comparative Example 14, L-phenylalanine]
Endoserine-I RNA expression amount [1]: 1.05 ± 0.05 | Keratin 10 RNA expression amount [2]: 0.78 ± 0.07 | Hyaluronic acid synthase 2 RNA expression amount [3]: 0.89 ± 0.84 | Involucrin RNA expression amount [4]: 0.87 ± 0.04 | Filaggrin RNA expression amount [5]: 0.59 ± 0.05** | Transglutaminase 1 RNA expression amount [6]: 0.72 ± 0.05**

(Pro-Hyp-Gly)5 [Example 1]
Endoserine-I RNA expression amount [1]: 0.32 ± 0.00* | Keratin 10 RNA expression amount [2]: 6.40 ± 0.06 | Hyaluronic acid synthase 2 RNA expression amount [3]: 3.45 ± 1.02** | Involucrin RNA expression amount [4]: 7.96 ± 0.60** | Filaggrin RNA expression amount [5]: 11.23 ± 1.56*** | Transglutaminase 1 RNA expression amount [6]: 13.50 ± 2.69**

Pro-Ala [Comparative Example 6]
Endoserine-I RNA expression amount [1]: 1.09 ± 0.01** | Keratin 10 RNA expression amount [2]: 0.70 ± 0.04 | Hyaluronic acid synthase 2 RNA expression amount [3]: 0.99 ± 0.68 | Involucrin RNA expression amount [4]: 0.81 ± 0.06** | Filaggrin RNA expression amount [5]: 0.63 ± 0.08** | Transglutaminase 1 RNA expression amount [6]: 0.94 ± 0.13

Gly-Pro-[Hyp] [Comparative Example 1]
Endoserine-I RNA expression amount [1]: 1.05 ± 0.11 | Keratin 10 RNA expression amount [2]: 0.94 ± 0.10 | Hyaluronic acid synthase 2 RNA expression amount [3]: 0.98 ± 0.45 | Involucrin RNA expression amount [4]: 0.95 ± 0.08 | Filaggrin RNA expression amount [5]: 1.08 ± 0.21 | Transglutaminase 1 RNA expression amount [6]: 0.98 ± 0.05

Pro-Gly [Comparative Example 4]
Endoserine-I RNA expression amount [1]: 1.06 ± 0.10** | Keratin 10 RNA expression amount [2]: 0.89 ± 0.01* | Hyaluronic acid synthase 2 RNA expression amount [3]: 0.54 ± 0.98* | Involucrin RNA expression amount [4]: 0.72 ± 0.02* | Filaggrin RNA expression amount [5]: 0.86 ± 0.18 | Transglutaminase 1 RNA expression amount [6]: 0.64 ± 0.01***

NCC(=O)O [Comparative Example 9, L-glycine]
Endoserine-I RNA expression amount [1]: 1.01 ± 0.05** | Keratin 10 RNA expression amount [2]: 0.81 ± 0.05 | Hyaluronic acid synthase 2 RNA expression amount [3]: 0.61 ± 0.40** | Involucrin RNA expression amount [4]: 0.71 ± 0.03** | Filaggrin RNA expression amount [5]: 0.87 ± 0.05 | Transglutaminase 1 RNA expression amount [6]: 0.75 ± 0.01**

CC(C)C[C@H](N)C(=O)O [Comparative Example 10, L-leucine]
Endoserine-I RNA expression amount [1]: 1.58 ± 0.05** | Keratin 10 RNA expression amount [2]: 0.62 ± 0.01** | Hyaluronic acid synthase 2 RNA expression amount [3]: 0.76 ± 0.07* | Involucrin RNA expression amount [4]: 0.84 ± 0.03 | Filaggrin RNA expression amount [5]: 0.89 ± 0.08 | Transglutaminase 1 RNA expression amount [6]: 0.63 ± 0.07*

N[C@@H](CO)C(=O)O [Comparative Example 13, L-serine]
Endoserine-I RNA expression amount [1]: 1.64 ± 0.07** | Keratin 10 RNA expression amount [2]: 0.69 ± 0.03** | Hyaluronic acid synthase 2 RNA expression amount [3]: 0.81 ± 0.50 | Involucrin RNA expression amount [4]: 0.98 ± 0.05 | Filaggrin RNA expression amount [5]: 0.85 ± 0.08 | Transglutaminase 1 RNA expression amount [6]: 0.85 ± 0.02

Gly-Pro [Example 3]
Endoserine-I RNA expression amount [1]: 0.36 ± 0.12** | Keratin 10 RNA expression amount [2]: 2.56 ± 0.22*** | Hyaluronic acid synthase 2 RNA expression amount [3]: 3.08 ± 0.99** | Involucrin RNA expression amount [4]: 2.18 ± 0.00*** | Filaggrin RNA expression amount [5]: 7.21 ± 0.95*** | Transglutaminase 1 RNA expression amount [6]: 2.15 ± 0.02**

(Pro-Hyp-Gly)2 [Example 2]
Endoserine-I RNA expression amount [1]: 0.43 ± 0.03*** | Keratin 10 RNA expression amount [2]: 5.69 ± 0.28*** | Hyaluronic acid synthase 2 RNA expression amount [3]: 3.11 ± 0.89** | Involucrin RNA expression amount [4]: 4.35 ± 0.04*** | Filaggrin RNA expression amount [5]: 9.58 ± 1.02*** | Transglutaminase 1 RNA expression amount [6]: 7.21 ± 0.03**

Pro-Ala-Gly [Example 4]
Endoserine-I RNA expression amount [1]: 0.67 ± 0.01** | Keratin 10 RNA expression amount [2]: 3.98 ± 0.23*** | Hyaluronic acid synthase 2 RNA expression amount [3]: 2.99 ± 1.03** | Involucrin RNA expression amount [4]: 2.75 ± 0.03*** | Filaggrin RNA expression amount [5]: 5.33 ± 1.25*** | Transglutaminase 1 RNA expression amount [6]: 3.11 ± 0.02***

Hyp-Gly [Example 9]
Endoserine-I RNA expression amount [1]: 0.55 ± 0.09** | Keratin 10 RNA expression amount [2]: 1.99 ± 0.13* | Hyaluronic acid synthase 2 RNA expression amount [3]: 2.18 ± 0.67** | Involucrin RNA expression amount [4]: 2.04 ± 0.02* | Filaggrin RNA expression amount [5]: 2.98 ± 0.58** | Transglutaminase 1 RNA expression amount [6]: 1.99 ± 0.06*

Pro-Pro [Comparative Example 5]
Endoserine-I RNA expression amount [1]: 1.65 ± 0.07* | Keratin 10 RNA expression amount [2]: 0.98 ± 0.16 | Hyaluronic acid synthase 2 RNA expression amount [3]: 0.78 ± 0.64* | Involucrin RNA expression amount [4]: 0.56 ± 0.04* | Filaggrin RNA expression amount [5]: 0.66 ± 0.09** | Transglutaminase 1 RNA expression amount [6]: 0.64 ± 0.01***

C[C@H](N)C(=O)O [Comparative Example 12, L-alanine]
Endoserine-I RNA expression amount [1]: 1.58 ± 0.05** | Keratin 10 RNA expression amount [2]: 0.82 ± 0.02* | Hyaluronic acid synthase 2 RNA expression amount [3]: 0.89 ± 0.57 | Involucrin RNA expression amount [4]: 0.64 ± 0.15** | Filaggrin RNA expression amount [5]: 0.69 ± 0.02** | Transglutaminase 1 RNA expression amount [6]: 0.95 ± 0.04

Ser-[Hyp]-Gly [Example 10]
Endoserine-I RNA expression amount [1]: 0.89 ± 0.07* | Keratin 10 RNA expression amount [2]: 1.77 ± 0.04** | Hyaluronic acid synthase 2 RNA expression amount [3]: 2.14 ± 0.89* | Involucrin RNA expression amount [4]: 1.59 ± 0.05* | Filaggrin RNA expression amount [5]: 2.29 ± 0.26** | Transglutaminase 1 RNA expression amount [6]: 1.21 ± 0.01

Glu-[Hyp]-Gly [Example 8]
Endoserine-I RNA expression amount [1]: 0.71 ± 0.03 | Keratin 10 RNA expression amount [2]: 2.39 ± 0.02* | Hyaluronic acid synthase 2 RNA expression amount [3]: 2.56 ± 0.45** | Involucrin RNA expression amount [4]: 1.89 ± 0.03* | Filaggrin RNA expression amount [5]: 2.92 ± 0.89** | Transglutaminase 1 RNA expression amount [6]: 1.69 ± 0.01***

Leu-Hyp [Comparative Example 3]
Endoserine-I RNA expression amount [1]: 1.08 ± 0.00 | Keratin 10 RNA expression amount [2]: 1.04 ± 0.06 | Hyaluronic acid synthase 2 RNA expression amount [3]: 0.87 ± 0.63 | Involucrin RNA expression amount [4]: 0.89 ± 0.09* | Filaggrin RNA expression amount [5]: 0.69 ± 0.58 | Transglutaminase 1 RNA expression amount [6]: 0.58 ± 0.01***

O=C(O)[C@@H]1CCCN1 [Comparative Example 7, L-proline]
Endoserine-I RNA expression amount [1]: 1.89 ± 0.06** | Keratin 10 RNA expression amount [2]: 0.73 ± 0.03** | Hyaluronic acid synthase 2 RNA expression amount [3]: 0.84 ± 0.47 | Involucrin RNA expression amount [4]: 0.78 ± 0.01** | Filaggrin RNA expression amount [5]: 0.85 ± 0.18 | Transglutaminase 1 RNA expression amount [6]: 1.02 ± 0.13
